Measurements taken from patent US20240343727A1, “PYRIDAZINONE OR PYRIDINONE COMPOUNDS, PREPARATION METHODS AND USES THEREOF” (InventisBio Co., Ltd., priority 2021, published 2024).

Target: T1, PARP7 (Homo sapiens, UniProt Q7Z3E1)
T1 sequence (Q7Z3E1 1-657): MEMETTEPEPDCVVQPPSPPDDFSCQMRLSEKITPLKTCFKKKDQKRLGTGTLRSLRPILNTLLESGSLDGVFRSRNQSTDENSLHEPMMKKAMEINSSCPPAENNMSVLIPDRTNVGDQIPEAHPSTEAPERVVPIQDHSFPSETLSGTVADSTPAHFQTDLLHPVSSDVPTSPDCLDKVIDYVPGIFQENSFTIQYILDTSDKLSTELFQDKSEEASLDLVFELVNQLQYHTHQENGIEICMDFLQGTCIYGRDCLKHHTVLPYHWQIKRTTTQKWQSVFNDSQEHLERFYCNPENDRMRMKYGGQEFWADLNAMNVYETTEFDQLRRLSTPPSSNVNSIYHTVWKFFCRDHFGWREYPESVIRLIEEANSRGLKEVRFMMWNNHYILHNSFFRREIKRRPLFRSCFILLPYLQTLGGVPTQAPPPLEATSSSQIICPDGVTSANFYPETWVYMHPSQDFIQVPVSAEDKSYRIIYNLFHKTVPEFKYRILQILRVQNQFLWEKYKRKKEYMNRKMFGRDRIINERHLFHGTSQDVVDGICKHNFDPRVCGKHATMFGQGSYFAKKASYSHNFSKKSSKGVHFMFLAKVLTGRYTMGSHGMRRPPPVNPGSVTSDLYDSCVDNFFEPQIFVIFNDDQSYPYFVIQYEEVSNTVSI
Assay: PARP7 TR-FRET assay (binding, displacement of biotinylated Probe A)
Details: 6 nM PARP7, 2 nM Probe A, 25° C., 30 min
How it was run: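 Compound displacement of biotinylated Probe A (2 nM) from PARP7 (6 nM) measured by TR-FRET in HEPES pH 8.0 buffer, 30 min at 25° C. Detection used ULight-anti 6xHis (4 nM) plus Eu-streptavidin (0.25 nM) for 30 min, reading the 665/615 nm ratio. % inhibition was taken against DMSO and no-enzyme wells, and IC50 from a Hill fit.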

| IC50 [µM] | Compound |
| --- | --- |
| < 0.1 | N#Cc1ccc(N2CCN(C(=O)c3cc(Oc4n[nH]c(=O)c(C(F)(F)F)c4N4CC5(CCC5)C4)ccn3)CC2)nc1 [Compound 274] |
| < 0.1 | O=C(CC1CN(c2cc(C(F)(F)F)c(=O)[nH]n2)c2cc(C3CC3)ccc2O1)N1CCN(c2ncc(C(F)(F)F)cn2)CC1 (single isomer, unassigned) [Compound 134] |
| < 0.1 | CS(=O)(=O)Cc1ccc2c(c1)N(c1cc(C(F)(F)F)c(=O)[nH]n1)CC(CC(=O)N1CCN(c3ncc(C(F)(F)F)cn3)CC1)O2 (single isomer, unassigned) [Compound 270] |
| < 0.1 | N#Cc1cnc(N2CCN(C(=O)CC3CN(c4cc(C(F)(F)F)c(=O)[nH]n4)c4cc(F)ccc4O3)CC2)nc1 (single isomer, unassigned) [Compound 264] |
| < 0.1 | O=C(CCO[C@@H]1CCNc2c1n[nH]c(=O)c2C(F)(F)F)N1CCN(c2ncc(C(F)(F)F)cn2)CC1 (single isomer, unassigned) [Compound 6] |
| 0.1 to 1 | N#Cc1cnc(N2CCN(C(=O)CC3CN(c4cc(C(F)(F)F)c(=O)[nH]n4)c4ccccc4O3)CC2)nc1 (single isomer, unassigned) [Compound 251] |
| < 0.1 | O=C(c1cccc(Oc2n[nH]c(=O)c(C(F)(F)F)c2N2CC3CC3C2)c1)N1CCN(c2ncc(C(F)(F)F)cn2)CC1 (stereo not shown) [Compound 68] |
| 0.1 to 1 | O=C(c1ccc2c(c1)N(c1cc(C(F)(F)F)c(=O)[nH]n1)CCO2)N1CCN(c2ncc(C(F)(F)F)cn2)CC1 [Compound 30] |
| < 0.1 | N#Cc1cnc(N2CCN(C(=O)c3cc(Oc4n[nH]c(=O)c(C(F)(F)F)c4N4CC5(CCC5)C4)ccn3)CC2)nc1 [Compound 273] |
| < 0.1 | CO[C@H]1C[C@@H](Nc2c(Oc3cccc(C(=O)N4CCN(c5ncc(C(F)(F)F)cn5)CC4)c3)n[nH]c(=O)c2C(F)(F)F)C1 [Compound 191] |
| > 1 | O=C(CC1CN(c2cc(C(F)(F)F)c(=O)[nH]n2)c2ccccc2O1)N1CCN(c2ccc(C3CC3)cn2)CC1 (single isomer, unassigned) [Compound 286] |
| < 0.1 | O=C(c1cncc(Oc2n[nH]c(=O)c(C(F)(F)F)c2N2CC3(CCC3)C2)c1)N1CCN(c2ncc(C(F)(F)F)cn2)CC1 [Compound 84] |
| 0.1 to 1 | O=C(CC1CN(c2cc(C(F)(F)F)c(=O)[nH]n2)c2ccc(Cl)cc2O1)N1CCN(c2ncc(C(F)(F)F)cn2)CC1 (single isomer, unassigned) [Compound 164] |
| < 0.1 | C#Cc1c(C)c(Oc2cccc(C(=O)N3CCN(c4ncc(C(F)(F)F)cn4)CC3)c2)n[nH]c1=O [Compound 75] |
| 0.1 to 1 | C[C@@H]1C[C@H](OCC(=O)N2CCN(c3ncc(C(F)(F)F)cn3)CC2)c2n[nH]c(=O)c(C(F)(F)F)c2O1 [Compound 115] |
| < 0.1 | O=C(c1cncc(Oc2n[nH]c(=O)c(C(F)(F)F)c2N2CC3(C2)CC(F)(F)C3)c1)N1CCN(c2ncc(Cl)cn2)CC1 [Compound 277] |
| < 0.1 | Cc1ccc(C(=O)N2CCN(c3ncc(C(F)(F)F)cn3)CC2)cc1Oc1n[nH]c(=O)c(C(F)(F)F)c1C [Compound 19] |
| 0.1 to 1 | O=C(CC1CN(c2n[nH]c(=O)c3cc(F)ccc23)CCO1)N1CCN(c2ncc(C(F)(F)F)cn2)CC1 (single isomer, unassigned) [Compound 49] |
| < 0.1 | C[C@@H]1CN(C(=O)c2cc(Oc3n[nH]c(=O)c(C(F)(F)F)c3N3CC4(CCC4)C3)ccn2)CCN1c1ncc(C(F)(F)F)cn1 [Compound 352] |
| < 0.1 | O=C(c1cccc(Oc2n[nH]c(=O)c(C(F)(F)F)c2N2CC3(C2)CC(F)(F)C3)c1)N1CCN(c2ncc(C(F)(F)F)cn2)CC1 [Compound 175] |
| 0.1 to 1 | C[C@@H]1CN(c2n[nH]c(=O)c3cccc(F)c23)C[C@@H](CC(=O)N2CCN(c3ncc(C(F)(F)F)cn3)CC2)O1 (stereo in doubt) [Compound 90] |
| < 0.1 | O=C(c1cncc(Oc2n[nH]c(=O)c(C(F)(F)F)c2N2CC3(C2)CC(F)(F)C3)c1)N1CCN(c2cnc(C(F)(F)F)cn2)CC1 [Compound 334] |
| 0.1 to 1 | Cc1cccc2c(N3CCOC(CC(=O)N4CCN(c5ncc(C(F)(F)F)cn5)CC4)C3)n[nH]c(=O)c12 (single isomer, unassigned) [Compound 106] |
| < 0.1 | Cc1c(Sc2cccc(C(=O)N3CCN(c4ncc(C(F)(F)F)cn4)CC3)c2)n[nH]c(=O)c1C(F)(F)F [Compound 62] |
| < 0.1 | O=C(CC1CN(c2cc(C(F)(F)F)c(=O)[nH]n2)c2ccc(Cl)cc2O1)N1CCN(c2ncc(C(F)(F)F)cn2)CC1 (single isomer, unassigned) [Compound 163] |

| IC50 [µM] | Compound |
| --- | --- |
| < 0.1 | CC(C)(O)c1cnc(N2CCN(C(=O)CC3CN(c4cc(C(F)(F)F)c(=O)[nH]n4)c4cc(Cl)ccc4O3)CC2)nc1 (single isomer, unassigned) [Compound 151] |
| < 0.1 | COC1CN(c2c(Oc3cccc(C(=O)N4CCN(c5ncc(C(F)(F)F)cn5)CC4)c3)n[nH]c(=O)c2C(F)(F)F)C1 [Compound 166] |
| < 0.1 | O=C(c1cccc(Oc2n[nH]c(=O)c(C(F)(F)F)c2N2CC3(CCC3)C2)c1)N1CCN(c2ncc(C3CC3)cn2)CC1 [Compound 226] |
| < 0.1 | O=C(COC1CCOc2c1n[nH]c(=O)c2C(F)F)N1CCN(c2ncc(C(F)(F)F)cn2)CC1 (single isomer, unassigned) [Compound 55] |
| < 0.1 | C[C@@H]1CN(C(=O)CC2CN(c3cc(C(F)(F)F)c(=O)[nH]n3)c3cc(Cl)ccc3O2)CCN1c1ncc(C#N)cn1 (single isomer, unassigned) [Compound 329] |
| < 0.1 | C[C@@H]1CN(C(=O)CC2CN(c3cc(C(F)(F)F)c(=O)[nH]n3)c3cc(F)ccc3O2)CCN1c1ncc(C#N)cn1 (single isomer, unassigned) [Compound 325] |
| < 0.1 | C[C@@H]1CN(C(=O)c2cc(Oc3n[nH]c(=O)c(C(F)(F)F)c3N3CC4(C3)CC(F)(F)C4)ccn2)CCN1c1cnc(C(F)(F)F)cn1 [Compound 147] |
| < 0.1 | CN1CC2(C1)CN(c1c(Oc3cccc(C(=O)N4CCN(c5ncc(C(F)(F)F)cn5)CC4)c3)n[nH]c(=O)c1C(F)(F)F)C2 [Compound 69] |
| 0.1 to 1 | COC[C@@H]1C[C@H](OCC(=O)N2CCN(c3ncc(C(F)(F)F)cn3)CC2)c2n[nH]c(=O)c(C(F)(F)F)c2O1 [Compound 116] |
| < 0.1 | O=C(c1cncc(Oc2n[nH]c(=O)c(C(F)(F)F)c2N2CC3(C2)CC(F)(F)C3)c1)N1CCN(c2ncc(C3CC3)cn2)CC1 [Compound 313] |
| < 0.1 | C[C@@H]1CN(C(=O)CC2CN(c3cc(C(F)(F)F)c(=O)[nH]n3)c3cc(C#N)ccc3O2)CCN1c1cnc(C(F)(F)F)cn1 (single isomer, unassigned) [Compound 153] |
| 0.1 to 1 | N#Cc1ccc2c(c1)N(c1cc(C(F)(F)F)c(=O)[nH]n1)CC(CC(=O)N1CCN(c3ncc(C(F)(F)F)cn3)CC1)O2 (single isomer, unassigned) [Compound 201] |
| < 0.1 | Cc1c(N2C[C@H](CC(=O)N3CCN(c4ncc(C(F)(F)F)cn4)CC3)O[C@H](C)C2)n[nH]c(=O)c1C(F)(F)F (stereo in doubt) [Compound 41] |
| > 1 | O=C(COC1CCOc2c1n[nH]c(=O)c2C1CC1)N1CCN(c2ncc(C(F)(F)F)cn2)CC1 (single isomer, unassigned) [Compound 129] |
| < 0.1 | O=C(COC1CCOc2c1n[nH]c(=O)c2C(F)(F)F)N1CCN(c2ncc(C(F)(F)F)cn2)CC1 (single isomer, unassigned) [Compound 10] |
| 0.1 to 1 | O=C(CC1CN(c2cc(C(F)(F)F)c(=O)[nH]n2)c2ccccc2O1)N1CCN(c2cnc(C(F)(F)F)cn2)CC1 (single isomer, unassigned) [Compound 263] |
| < 0.1 | C[C@@H]1CN(C(=O)c2cncc(Oc3n[nH]c(=O)c(C(F)(F)F)c3N3CC4(C3)CC(F)(F)C4)c2)CCN1c1ncc(C(F)(F)F)cn1 [Compound 314] |
| 0.1 to 1 | C[C@@H]1CN(c2n[nH]c(=O)c3c(F)cccc23)C[C@H](CC(=O)N2CCN(c3ncc(C(F)(F)F)cn3)CC2)O1 (stereo in doubt) [Compound 118] |
| < 0.1 | O=C(CC1CN(c2n[nH]c(=O)c3c(F)cc(Cl)cc23)CCO1)N1CCN(c2ncc(C(F)(F)F)cn2)CC1 (stereo not shown) [Compound 242] |
| < 0.1 | C[C@@H]1CN(C(=O)c2cccc(Oc3n[nH]c(=O)c(C(F)(F)F)c3N3CC(C#N)C3)c2)CCN1c1ncc(C(F)(F)F)cn1 [Compound 350] |
| < 0.1 | O=C(c1cccc(Oc2n[nH]c(=O)c(C(F)(F)F)c2N2CC3(CC(F)C3)C2)c1)N1CCN(c2ncc(C(F)(F)F)cn2)CC1 [Compound 176] |
| < 0.1 | C[C@H]1CN(c2cc(C(F)(F)F)c(=O)[nH]n2)C[C@H](CC(=O)N2CCN(c3ncc(C(F)(F)F)cn3)CC2)O1 (stereo in doubt) [Compound 111] |
| < 0.1 | O=C(c1cncc(Oc2n[nH]c(=O)c(C(F)(F)F)c2N2CC3(C2)CC(F)(F)C3)c1)N1CCN(c2ncc(C(F)(F)F)cn2)CC1 [Compound 238] |
| < 0.1 | C#Cc1cnc(N2CCN(C(=O)c3cc(Oc4n[nH]c(=O)c(C(F)(F)F)c4N4CC5(C4)CC(F)(F)C5)ccn3)CC2)nc1 [Compound 317] |
